Experimental data: article PMC8437966, “Structure and function relationship of OqxB efflux pump from Klebsiella pneumoniae” (Nature Communications, 2021)
Values after ≈ are worked out from the molar mass of the structure shown.

Experiments:
[1] = test system: T1, Escherichia coli SEC052; set-up: CLSI broth microdilution MIC, 96-well, absorbance at 600 nm
T1 construct: SEC052
Method: (§1) MIC (Minimum Inhibitory Concentration) was determined according to CLSI guidelines, as discussed elsewhere. Briefly, the strains were streaked on LB-Agar plates with Ampicillin (100 µg/mL) from glycerol stocks maintained at −80 °C and allowed to grow overnight at 37 °C. A single colony of each strain was picked from the fresh plates and grown in MHB No.2 Control Cations Hi-Media (MHB) with Ampicillin (100 µg/mL). Phe-Arg β-Naphthylamide (PAβN; Sigma-Aldrich, Catalog no.# P4157) was used at a final concentration of 20 µg/mL, wherever mentioned. The AcrAB and OqxAB expression are under a […] promoter, and AcrB and OqxB were induced with 100 μM of IPTG (Amresco, Catalog no.# 0487-10 G). Antibiotics and their two-fold dilution series were prepared in DMSO. Three microliters compound from each of the dilutions and 150 μL (3–7 × 10^5 CFU/mL) of bacterial culture were added to a flat bottom 96 well microtiter plates to obtain final antibiotic concentrations ranging from 0.03 µg/mL to 160 µg/mL. The plates were packed in gas permeable polythene bags and incubated at 37 °C for 16–18 h. MIC was determined as the concentration at which no bacterial growth was observed as ascertained by absorbance (A600nm) with a spectrophotometer. In the case of the wild-type strain and clinical isolates, 90% growth inhibition was used for MIC determination. […] All experiments were performed in triplicates and the data reported in this work is representative of the same. OqxB, the RND efflux pump component, is associated with increased resistance in clinical isolates of E. coli and K. pneumoniae. To understand the efflux liability for fluoroquinolones in E. coli in the clinic, 84 recent clinical isolates were evaluated by MIC experiments (at St. John’s Medical Hospital, Bengaluru, India). […] To delineate the cause of the resistance, the Quinolone-resistance determining regions (QRDR) of gyrA and parC were sequenced. […] Therefore, complementation experiments in “sensitive strains” were undertaken to further probe the role of OqxB in efflux towards fluoroquinolone resistance.

[2] = test system: T2, Escherichia coli SEC056; set-up: CLSI broth microdilution MIC, 96-well, absorbance at 600 nm
T2 construct: SEC056
Method: as §1

[3] = test system: T3, Escherichia coli SEC063; set-up: CLSI broth microdilution MIC, 96-well, absorbance at 600 nm
T3 construct: SEC063
Method: as §1

[4] = test system: T4, Escherichia coli SEC032; set-up: CLSI broth microdilution MIC, 96-well, absorbance at 600 nm
T4 construct: SEC032
Method: as §1

[5] = test system: T5, Escherichia coli SEC010; set-up: CLSI broth microdilution MIC, 96-well, absorbance at 600 nm
T5 construct: SEC010
Method: as §1

[6] = test system: T6, Escherichia coli SEC045; set-up: CLSI broth microdilution MIC, 96-well, absorbance at 600 nm
T6 construct: SEC045
Method: as §1

[7] = test system: Escherichia coli SEC030
Method: as §1

[8] = test system: Escherichia coli BW25113
Method: as §1

[9] = test system: Escherichia coli SEC086
Method: as §1

[10] = test system: Escherichia coli SEC037
Method: as §1

[11] = test system: T7, Escherichia coli SEC037; experiment: microbe, parasite or virus in culture; set-up: species or system Escherichia coli clinical isolates; CLSI broth microdilution MIC on E. coli clinical isolates, A600 read-out, 90% growth inhibition; conditions: SEC037, read-out: MIC VALUES / Ampicillin
T7 construct: SEC037
Method: as §1

[12] = test system: T8, Escherichia coli SEC046; experiment: microbe, parasite or virus in culture; set-up: species or system Escherichia coli clinical isolates; CLSI broth microdilution MIC on E. coli clinical isolates, A600 read-out, 90% growth inhibition; conditions: SEC046, read-out: MIC VALUES / Ampicillin
T8 construct: SEC046
Method: as §1

[13] = test system: T4, Escherichia coli SEC032; experiment: microbe, parasite or virus in culture; set-up: species or system Escherichia coli clinical isolates; CLSI broth microdilution MIC on E. coli clinical isolates, A600 read-out, 90% growth inhibition; conditions: SEC032, read-out: MIC VALUES / Ampicillin
Method: as §1

[14] = test system: T9, Escherichia coli SEC030; experiment: microbe, parasite or virus in culture; set-up: species or system Escherichia coli clinical isolates; CLSI broth microdilution MIC on E. coli clinical isolates, A600 read-out, 90% growth inhibition; conditions: SEC030, read-out: MIC VALUES / Ampicillin
T9 construct: SEC030
Method: as §1

[15] = test system: T10, Escherichia coli SEC086; experiment: microbe, parasite or virus in culture; set-up: species or system Escherichia coli clinical isolates; CLSI broth microdilution MIC on E. coli clinical isolates, A600 read-out, 90% growth inhibition; conditions: SEC086, read-out: MIC VALUES / Ampicillin
T10 construct: SEC086
Method: as §1

[16] = test system: T11, Escherichia coli SEC050; experiment: microbe, parasite or virus in culture; set-up: species or system Escherichia coli clinical isolates; CLSI broth microdilution MIC on E. coli clinical isolates, A600 read-out, 90% growth inhibition; conditions: SEC050, read-out: MIC VALUES / Ampicillin
T11 construct: SEC050
Method: as §1

[17] = test system: T6, Escherichia coli SEC045; experiment: microbe, parasite or virus in culture; set-up: species or system Escherichia coli clinical isolates; CLSI broth microdilution MIC on E. coli clinical isolates, A600 read-out, 90% growth inhibition; conditions: SEC045, read-out: MIC VALUES / Ampicillin
Method: as §1

| SMILES | Linezolid MIC without PAβN [1] [µg/mL] | Linezolid MIC without PAβN [2] [µg/mL] | Linezolid MIC without PAβN [3] [µg/mL] | Linezolid MIC without PAβN [4] [µg/mL] | Linezolid MIC without PAβN [5] [µg/mL] | Linezolid MIC without PAβN [6] [µg/mL] | Linezolid MIC without PAβN [7] [µg/mL] | Linezolid MIC without PAβN [8] [µg/mL] | Linezolid MIC without PAβN [9] [µg/mL] | Linezolid MIC without PAβN [10] [µg/mL] | MIC [11] [µg/mL] | MIC [12] [µg/mL] | MIC [13] [µg/mL] | MIC [14] [µg/mL] | MIC [15] [µg/mL] | MIC [16] [µg/mL] | MIC [17] [µg/mL] |
| --- | --- | --- | --- | --- | --- | --- | --- | --- | --- | --- | --- | --- | --- | --- | --- | --- | --- |
| CC(=O)NC[C@H]1CN(c2ccc(N3CCOCC3)c(F)c2)C(=O)O1 [Linezolid] | 200 | 200 | 400 | 400 | 400 | 200 | 400 | 200 | 200 | 200 |  |  |  |  |  |  |  |
| CC1(C)S[C@@H]2[C@H](NC(=O)[C@H](N)c3ccccc3)C(=O)N2[C@H]1C(=O)O [ampicillin] |  |  |  |  |  |  |  |  |  |  | 2 (≈ 5.72 µM) | 8 (≈ 22.9 µM) | 8 (≈ 22.9 µM) | 2 (≈ 5.72 µM) | 4 (≈ 11.4 µM) | 8 (≈ 22.9 µM) | 4 (≈ 11.4 µM) |
